Key:
[1] = molecular target: T1, BRD4 bromo domain 2 [BRD4(2)] (Homo sapiens, UniProt O60885); assay: BRD4(2)/acetylated peptide H4 binding assay (TR-FRET); details: inhibition of interaction between His6-tagged BRD4(2) (amino acids 357-445) and acetylated histone H4 peptide
T1 construct: N-terminally His6-tagged BRD4(2) (amino acids 357-445); made in house; host or cells: E. coli
Excerpt: (§1) Protein-Protein Interaction Assay: BRD4/Acetylated Peptide H4 Binding Assay
2. Assay Description for BRD4 Bromo Domain 2 [BRD4(2)]
To assess the BRD4(2) binding strength of the substances described in this application, the ability thereof to inhibit the interaction between BRD4(2) and acetylated histone H4 in a dose-dependent manner was quantified.
(§2) For this purpose, a time-resolved fluorescence resonance energy transfer (TR-FRET) assay was used, which measures the binding between N-terminally His6-tagged BRD4(2) (amino acids 357-445) and a synthetic acetylated histone H4 (Ac-H4) peptide with sequence SGRGK(Ac)GGK(Ac)GLGK(Ac)GGAK(Ac)RHRKVLRDNGSGSK-biotin. The recombinant BRD4(2) protein produced in-house according to Filippakopoulos et al., Cell, 2012, 149:214-231 was expressed in E. coli and purified by means of (Ni-NTA) affinity and (Sephadex G-75) size exclusion chromatography. The Ac-H4 peptide can be purchased, for example, from Biosyntan (Berlin, Germany).
(§3) In the assay, typically 11 different concentrations of each substance (0.1 nM, 0.33 nM, 1.1 nM, 3.8 nM, 13 nM, 44 nM, 0.15 μM, 0.51 μM, 1.7 μM, 5.9 μM and 20 μM) were analysed as duplicates on the same microtitre plate. For this purpose, 100-fold concentrated solutions in DMSO were prepared by serial dilutions (1:3.4) of a 2 mM stock solution into a clear, 384-well microtitre plate (Greiner Bio-One, Frickenhausen, Germany). From this, 50 nl were transferred into a black test plate (Greiner Bio-One, Frickenhausen, Germany). The test was started by the addition of 2 μl of a 2.5-fold concentrated BRD4(2) solution (final concentration typically 100 nM in the 5 μl of reaction volume) in aqueous assay buffer [50 mM HEPES pH 7.5, 50 mM sodium chloride (NaCl); 50 mM potassium fluoride (KF); 0.25 mM CHAPS and 0.05% serum albumin (BSA)] to the substances in the test plate. This was followed by a 10-minute incubation step at 22° C. for the pre-equilibration of putative complexes between BRD4(2) and the substances.
(§4) The mixture was then incubated in the dark at 22° C. for one hour and then at 4° C. for at least 3 hours and for no longer than overnight. The formation of BRD4(2)/Ac-H4 complexes was determined by the measurement of the resonance energy transfer from the streptavidin-Eu chelate to the anti-6His-XL665 antibody present in the reaction. For this purpose, the fluorescence emission was measured at 620 nm and 665 nm after excitation at 330-350 nm in a TR-FRET measuring instrument, for example a Rubystar or Pherastar (both from BMG Lab Technologies, Offenburg, Germany) or a Viewlux (Perkin-Elmer). The ratio of the emissions at 665 nm and at 622 nm was taken as an indicator of the amount of BRD4(2)/Ac-H4 complexes formed.
(§5) The data (ratios) obtained were normalized, with 0% inhibition corresponding to the mean from the measurements for a set of controls (typically 32 data points) in which all the reagents were present. In these, in place of test substances, 50 nl of DMSO (100%) were used. Inhibition of 100% corresponded to the mean from the measurements for a set of controls (typically 32 data points) in which all the reagents except BRD4(2) were present. The IC50 was determined by regression analysis based on a 4-parameter equation (minimum, maximum, IC50, Hill; Y=max+(min−max)/(1+(X/IC50)Hill).

[2] = molecular target: T2, BRD4 bromo domain 1 [BRD4(1)] (Homo sapiens, UniProt O60885); assay: BRD4(1)/acetylated peptide H4 binding assay (TR-FRET); details: inhibition of interaction between His6-tagged BRD4(1) (amino acids 67-152) and acetylated histone H4 peptide
T2 construct: N-terminally His6-tagged BRD4(1) (amino acids 67-152); made in house; host or cells: E. coli
Excerpt: as §1
1. Assay Description for BRD4 Bromo Domain 1 [BRD4(1)]
To assess the BRD4(1) binding strength of the substances described in this application, the ability thereof to inhibit the interaction between BRD4(1) and acetylated histone H4 in a dose-dependent manner was quantified.
as §2, with “BRD4(1)” for “BRD4(2)”, “67-152)” for “357-445)”, “GRGK(Ac)GGK(Ac)GLGK(Ac)GGAK(Ac)RHGSGSK-biotin.” for “SGRGK(Ac)GGK(Ac)GLGK(Ac)GGAK(Ac)RHRKVLRDNGSGSK-biotin.”
as §3, with “concentrated BRD4(1)” for “concentrated BRD4(2)”, “typically 10” for “typically 100”, “chloride (NaCl),” for “chloride (NaCl); 50 mM potassium fluoride (KF);”, “between BRD4(1)” for “between BRD4(2)”
as §4, with “BRD4(1)/Ac-H4” for “BRD4(2)/Ac-H4”, “cryptate” for “chelate”
as §5, with “BRD4(1)” for “BRD4(2)”

Row | SMILES | IC50 [1] [nM] | IC50 [2] [nM]
1 | COc1cc(C(=O)N2CCC(F)CC2)ccc1Nc1ccc2c(n1)N(Cc1ccccc1)[C@H](C)C(=O)N2C [Example 43, (3R)-4-Benzyl-6-({4-[(4-fluoropiperidin-1-yl)carbonyl]-2-methoxyphenyl}amino)-1,3-dimethyl-3,4-dihydropyrido[2,3-b]pyrazin-2(1H)-one] | 102 | 218
2 | C[C@@H]1C(=O)N(C)c2ccc(Nc3ccc(C(=O)N[C@H]4CC[C@H](N5CCN(CC6CC6)CC5)CC4)cc3)nc2N1C1CCCCCC1 [Example 44, 4-{[(3R)-4-Cycloheptyl-1,3-dimethyl-2-oxo-1,2,3,4-tetrahydropyrido[2,3-b]pyrazin-6-yl]amino}-N-{trans-4-[4-(cyclopropylmethyl)piperazin-1-yl]cyclohexyl}benzamide] | 283 | 368
3 | COc1cc(C(=O)NCc2ccccn2)ccc1Nc1ccc2c(n1)N(C1CCOCC1)[C@H](C)C(=O)N2C [Example 47, 4-{[(3R)-1,3-Dimethyl-2-oxo-4-(tetrahydro-2H-pyran-4-yl)-1,2,3,4-tetrahydropyrido[2,3-b]pyrazin-6-yl]amino}-3-methoxy-N-(pyridin-2-ylmethyl)benzamide] | 112 | 201
4 | C[C@@H]1C(=O)N(C)c2ccc(Nc3ccc(C(=O)NCCc4cccnc4)cc3)nc2N1C1CCOCC1 [Example 49, 4-{[(3R)-1,3-Dimethyl-2-oxo-4-(tetrahydro-2H-pyran-4-yl)-1,2,3,4-tetrahydropyrido[2,3-b]pyrazin-6-yl]amino}-N-[2-(pyridin-3-yl)ethyl]benzamide] | 317 | 114
5 | C[C@@H]1C(=O)N(C)c2ccc(Nc3ccc(C(=O)NC4CCC(N5CCC(F)(F)CC5)CC4)cc3)nc2N1C1CCOCC1 (some centres unmarked) [Example 52] | 299 | 166
6 | Cc1cc(C(=O)NC2CCN(C)CC2)ccc1Nc1ccc2c(n1)N(C1CCOCC1)[C@H](C)C(=O)N2C [Example 54, 4-{[(3R)-1,3-Dimethyl-2-oxo-4-(tetrahydro-2H-pyran-4-yl)-1,2,3,4-tetrahydropyrido[2,3-b]pyrazin-6-yl]amino}-3-methyl-N-(1-methylpiperidin-4-yl)benzamide] | 354 | 357
7 | C[C@@H]1C(=O)N(C)c2ccc(Nc3ccc(C(=O)N4CCN(C)CC4)cc3)nc2N1C1CCOCC1 [Example 56, (3R)-1,3-Dimethyl-6-({4-[(4-methylpiperazin-1-yl)carbonyl]phenyl}amino)-4-(tetrahydro-2H-pyran-4-yl)-3,4-dihydropyrido[2,3-b]pyrazin-2(1H)-one] | 242 | 139
8 | COc1cc(C(=O)N[C@H]2CC[C@H](NC(=O)OC(C)(C)C)CC2)ccc1Nc1ccc2c(n1)N(C1CCOCC1)[C@H](C)C(=O)N2C [Example 59, tert-Butyl {trans-4-[(4-{[(3R)-1,3-dimethyl-2-oxo-4-(tetrahydro-2H-pyran-4-yl)-1,2,3,4-tetrahydropyrido[2,3-b]pyrazin-6-yl]amino}-3-methoxybenzoyl)amino]cyclohexyl}carbamate] | 323 | 533
9 | COc1cc(C(=O)NC2CCC(O)CC2)ccc1Nc1ccc2c(n1)N(C1CCOCC1)[C@H](C)C(=O)N2C (stereo partly drawn) [Example 60, 4-{[(3R)-1,3-Dimethyl-2-oxo-4-(tetrahydro-2H-pyran-4-yl)-1,2,3,4-tetrahydropyrido[2,3-b]pyrazin-6-yl]amino}-N-(4-hydroxycyclohexyl)-3-methoxybenzamide] | 212 | 339
10 | Cc1cc(C(=O)NCCN(C)C)ccc1Nc1ccc2c(n1)N(C1CCOCC1)[C@H](C)C(=O)N2C [Example 63, N-[2-(Dimethylamino)ethyl]-4-{[(3R)-1,3-dimethyl-2-oxo-4-(tetrahydro-2H-pyran-4-yl)-1,2,3,4-tetrahydropyrido[2,3-b]pyrazin-6-yl]amino}-3-methylbenzamide] | 206 | 262

Source: US20160193206A1, “BET-PROTEIN-INHIBITING DIHYDROPYRIDOPYRAZINONES” (BAYER PHARMA AKTIENGESELLSCHAFT, priority 2012, published 2016)
